These results are taken from patent US10821115B2, “Compounds that inhibit Mcl-1 protein” (priority 2017, dated 2020).

For assay [1], the target named is recombinant human Mcl-1 (residues 171-327) / Bim interaction (Homo sapiens (Human), UniProt Q07820). Briefly: biochemical. The class given is binding. Particulars: read-out: Mcl-1 HTRF IC50. Background: TR-FRET usually uses a lanthanide donor and a delayed reading to cut background.
For assay [2], the system named is human multiple myeloma cell line, OPM-2. In words: Cell viability assay (OPM-2 10 FBS), CellTiter-Glo. The class given is cell-based. A digest of the protocol:
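Steps: plate cells at 3000/well in 10% FBS growth medium, add serially diluted compound, incubate 16 h at 37 °C with 5% CO2, add detection reagent and read luminescence after 25 min. A 4-parameter logistic model gives IC50.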
(Cellular ATP, detected with luciferase, serves as a proxy for viable cell number.)

Setting [3] is: 0.1 nM Mcl-1(171-327), 0.05 nM biotin-Bim (51-76).
[4] abbreviates: Homo sapiens, OPM-2, 16 h, read-out: OPM-2 10% FBS IC50 IP, OPM-2 cells, 10% FBS, 16 h incubation.
Setting [5] is: TR-FRET, Mcl-1(171-327) / biotin-Bim (51-76).
Where [6] appears, read: Homo sapiens, OPM-2, 16 h, read-out: OPM-2 10% FBS IC50 IP, OPM-2 cells, 10% FBS, 16 h, CellTiter-Glo.

Like-named read-outs stand apart in the source and are kept apart here.

Chain of recombinant human Mcl-1 (residues 171-327) / Bim interaction (Q07820 171-327): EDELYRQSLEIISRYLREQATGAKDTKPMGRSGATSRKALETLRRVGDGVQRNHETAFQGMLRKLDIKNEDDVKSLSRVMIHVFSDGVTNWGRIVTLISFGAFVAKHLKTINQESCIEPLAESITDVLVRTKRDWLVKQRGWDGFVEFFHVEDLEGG

`CCO[C@]1(CN2CCN(C(C)C)CC2)/C=C/C[C@H](C)[C@@H](C)S(=O)(=O)NC(=O)c2ccc3c(c2)N(C[C@@H]2CC[C@H]21)C[C@@]1(CCCc2cc(Cl)ccc21)CO3` [Example 114, (1S,3′R,6′R,7′R,8′E,11′S,12′R)-6-chloro-7′-ethoxy-11′,12′-dimethyl-7′-((4-(1-methylethyl)-1-piperazinyl)methyl)-3,4-dihydro-2H,15′H-spiro[naphthalene-1,22′-[20]oxa[13]thia[1,14]diazatetracyclo [14.7.2.0~3,6~.0~19,24~]pentacosa[8,16,18,24]tetraen]-15′-one 13′,13′-dioxide]: the IC50 in assay [1] (setting [3]) worked out at 0.104 nM; in assay [2] (setting [4]) it was 68 nM.
On the same counts, the results for `CO[C@@]1(CN2CCN3C[C@@H](C)OC[C@@H]3C2)/C=C/C[C@H](C)[C@@H](C)S(=O)(=O)NC(=O)c2ccc3c(c2)N(C[C@@H]2CC[C@H]21)C[C@@]1(CCCc2cc(Cl)ccc21)CO3` [Example 147, (1S,3′R,6′R,7′S,8′E,11′S,12′R)-6-chloro-7′-methoxy-11′,12′-dimethyl-7′-(((3R,9aS)-3-methylhexahydropyrazino[2,1-c][1,4]oxazin-8(1H)-yl)methyl)-3,4-dihydro-2H,15′H-spiro[naphthalene-1,22′-[20]oxa[13]thia[1,14]diazatetracyclo [14.7.2.0~3,6~.0~19,24~]pentacosa[8,16,18,24]tetraen]-15′-one 13′,13′-dioxide] are 0.376 nM and 157 nM.
With `C[C@@H]1[C@@H](C)C/C=C/C(O)(Cc2nccn2C)[C@@H]2CC[C@H]2CN2C[C@@]3(CCCc4cc(Cl)ccc43)COc3ccc(cc32)C(=O)NS1(=O)=O` (stereo in doubt) [Example 100523, (1S,3′R,6′R,7′S,8′E,11′S,12′R)-6-chloro-7′-hydroxy-11′,12′-dimethyl-7′-((1-methyl-1H-imidazol-2-yl)methyl)-3,4-dihydro-2H,15′H-spiro[naphthalene-1,22′-[20]oxa[13]thia[1,14]diazatetracyclo [14.7.2.0~3,6~.0~19,24~]pentacosa[8,16,18,24]tetraen]-15′-one 13′,13′-dioxide], the IC50 in assay [1] (setting [5]) is 0.812 nM; in assay [2] (setting [6]), 622 nM.
For `C[C@@H]1[C@@H](C)CCC[C@]2(CCO2)[C@@H]2CC[C@H]2CN2C[C@@]3(CCCc4cc(Cl)ccc43)COc3ccc(cc32)C(=O)NS1(=O)=O` (single isomer, unassigned) [Example 100229], the IC50 came out at 0.356 nM in assay [1] (setting [5]) and 1490 nM in assay [2] (setting [6]).
With `C[C@@H]1[C@@H](C)C/C=C/[C@](O)(CCCO)[C@@H]2CC[C@H]2CN2C[C@@]3(CCCc4cc(Cl)ccc43)COc3ccc(cc32)C(=O)NS1(=O)=O` [Example 100156, (1S,3′R,6′R,7′R,8′E,11′S,12′R)-6-chloro-7′-hydroxy-7′-(3-hydroxypropyl)-11′,12′-dimethyl-3,4-dihydro-2H,15′H-spiro[naphthalene-1,22′-[20]oxa[13]thia[1,14]diazatetracyclo [14.7.2.0~3,6~.0~19,24~]pentacosa[8,16,18,24]tetraen]-15′-one 13′,13′-dioxide], the IC50 was found to be 0.41 nM in assay [1] (setting [5]) and 568 nM in assay [2] (setting [6]).
In the case of `CCO[C@@]1(CN2CCN(C(COC)COC)CC2)/C=C/C[C@H](C)[C@@H](C)S(=O)(=O)NC(=O)c2ccc3c(c2)N(C[C@@H]2CC[C@H]21)C[C@@]1(CCCc2cc(Cl)ccc21)CO3` [Example 111, (1S,3′R,6′R,7′S,8′E,11′S,12′R)-6-chloro-7′-ethoxy-7′-((4-(2-methoxy-1-(methoxymethyl)ethyl)-1-piperazinyl)methyl)-11′,12′-dimethyl-3,4-dihydro-2H,15′H-spiro[naphthalene-1,22′-[20]oxa[13]thia[1,14]diazatetracyclo [14.7.2.0~3,6~.0~19,24~]pentacosa[8,16,18,24]tetraen]-15′-one 13′,13′-dioxide], the IC50 in assay [1] (setting [3]) was determined as 0.362 nM; in assay [2] (setting [4]) it was 301 nM.
Take `CO[C@@]1(C(F)F)/C=C/C[C@H](C)[C@@H](C)S(=O)(=O)NC(=O)c2ccc3c(c2)N(C[C@@H]2CC[C@H]21)C[C@@]1(CCCc2cc(Cl)ccc21)CO3` [Example 100071, (1S,3′R,6′R,7′S,8′E,11′S,12′R)-6-chloro-7′-(difluoromethyl)-7′-methoxy-11′,12′-dimethyl-3,4-dihydro-2H,15′H-spiro[naphthalene-1,22′-[20]oxa[13]thia[1,14]diazatetracyclo [14.7.2.0~3,6~.0~19,24~]pentacosa[8,16,18,24]tetraen]-15′-one 13′,13′-dioxide]: the results for the IC50 in assay [1] (setting [5]) and in assay [2] (setting [6]) were 1.54 nM and 588 nM, respectively.
`CO[C@@]1(CN2CCN(Cc3nc(C)c(C)o3)CC2)/C=C/C[C@H](C)[C@@H](C)S(=O)(=O)NC(=O)c2ccc3c(c2)N(C[C@@H]2CC[C@H]21)C[C@@]1(CCCc2cc(Cl)ccc21)CO3` [Example 322, (1S,3′R,6′R,7′S,8′E,11′S,12′R)-6-chloro-7′-((4-((4,5-dimethyl-1,3-oxazol-2-yl)methyl)-1-piperazinyl)methyl)-7′-methoxy-11′,12′-dimethyl-3,4-dihydro-2H,15′H-spiro[naphthalene-1,22′-[20]oxa[13]thia[1,14]diazatetracyclo [14.7.2.0~3,6~.0~19,24~]pentacosa[8,16,18,24]tetraen]-15′-one 13′,13′-dioxide]: the IC50 in assay [1] (setting [3]) came to 0.145 nM; in assay [2] (setting [4]) it was 87 nM.
Consider `CO[C@@]1(c2cnc(Cl)n2C)/C=C/C[C@H](C)[C@@H](C)S(=O)(=O)NC(=O)c2ccc3c(c2)N(C[C@@H]2CC[C@H]21)C[C@@]1(CCCc2cc(Cl)ccc21)CO3` (single isomer, unassigned) [Example 100558], for which the values for the half-inhibitory concentration (IC50) in assay [1] (setting [5]) and in assay [2] (setting [6]) were 0.086 nM and 274 nM, respectively.
With `COCC[C@@H]1[C@@H](C)C/C=C/[C@@](CN2CCN3CCCC[C@@H]3C2)(OC)[C@@H]2CC[C@H]2CN2C[C@@]3(CCCc4cc(Cl)ccc43)COc3ccc(cc32)C(=O)NS1(=O)=O` [Example 181, (1S,3′R,6′R,7′R,8′E,11′S,12′R)-6-chloro-7′-methoxy-12′-(2-methoxyethyl)-11′-methyl-7′-((9aR)-octahydro-2H-pyrido[1,2-a]pyrazin-2-ylmethyl)-3,4-dihydro-2H,15′H-spiro[naphthalene-1,22′-[20]oxa[13]thia[1,14]diazatetracyclo [14.7.2.0~3,6~.0~19,24~]pentacosa[8,16,18,24]tetraen]-15′-one 13′,13′-dioxide], the IC50 is 0.324 nM in assay [1] (setting [3]) and 74 nM in assay [2] (setting [4]).
With `COCC[C@@H]1[C@@H](C)C/C=C/[C@@](C=O)(OC)[C@@H]2CC[C@H]2CN2C[C@@]3(CCCc4cc(Cl)ccc43)COc3ccc(cc32)C(=O)NS1(=O)=O` [Example 100571, (1S,3′R,6′R,7′R,8′E,11′S,12′R)-6-chloro-7′-methoxy-12′-(2-methoxyethyl)-11′-methyl-15′-oxo-3,4-dihydro-2H-spiro[naphthalene-1,22′-[20]oxa[13]thia[1,14]diazatetracyclo [14.7.2.0~3,6~.0~19,24~]pentacosa[8,16,18,24]tetraene]-7′-carbaldehyde 13′,13′-dioxide], the values for the IC50 in assay [1] (setting [5]) and in assay [2] (setting [6]) were 0.076 nM and 922 nM, respectively.
As for `C[C@@H]1[C@@H](C)CCC[C@](O)(c2ncccn2)[C@@H]2CC[C@H]2CN2C[C@@]3(CCCc4cc(Cl)ccc43)COc3ccc(cc32)C(=O)NS1(=O)=O` (stereo in doubt) [Example 100270], the results for the half-inhibitory concentration (IC50) in assay [1] and in assay [2] (setting [6]) were 0.776 nM and 3720 nM, respectively.
Consider `COCC[C@@H]1[C@@H](C)C/C=C/[C@](OC)(C2SCCCS2)[C@@H]2CC[C@H]2CN2C[C@@]3(CCCc4cc(Cl)ccc43)COc3ccc(cc32)C(=O)NS1(=O)=O` [Example 100515, (1S,3′R,6′R,7′R,8′E,11′S,12′R)-6-chloro-7′-(1,3-dithian-2-yl)-7′-methoxy-12′-(2-methoxyethyl)-11′-methyl-3,4-dihydro-2H,15′H-spiro[naphthalene-1,22′-[20]oxa[13]thia[1,14]diazatetracyclo [14.7.2.0~3,6~.0~19,24~]pentacosa[8,16,18,24]tetraen]-15′-one 13′,13′-dioxide], for which the IC50 in assay [1] (setting [5]) came out at 0.132 nM; in assay [2] (setting [6]) it was 585 nM.
`C[C@@H]1[C@@H](C)CCC[C@](O)(CC(=O)N(C)C(C)(C)C)[C@@H]2CC[C@H]2CN2C[C@@]3(CCCc4cc(Cl)ccc43)COc3ccc(cc32)C(=O)NS1(=O)=O` (single isomer, unassigned) [Example 100142]: the IC50 came out at 0.717 nM in assay [1] (setting [5]) and 663 nM in assay [2] (read-out: OPM-2 10% FBS IC50 IP, OPM-2 cells, 10% FBS, 16 h, CellTiter-Glo).
In the case of `CO[C@]1(CCN2CCN3CCOC[C@@H]3C2)/C=C/C[C@H](C)[C@@H](C)S(=O)(=O)NC(=O)c2ccc3c(c2)N(C[C@@H]2CC[C@H]21)C[C@@]1(CCCc2cc(Cl)ccc21)CO3` [Example 100425, (1S,3′R,6′R,7′R,8′E,11′S,12′R)-6-chloro-7′-(2-((9aS)-hexahydropyrazino[2,1-c][1,4]oxazin-8(1H)-yl)ethyl)-7′-methoxy-11′,12′-dimethyl-3,4-dihydro-2H,15′H-spiro[naphthalene-1,22′-[20]oxa[13]thia[1,14]diazatetracyclo [14.7.2.0~3,6~.0~19,24~]pentacosa[8,16,18,24]tetraen]-15′-one 13′,13′-dioxide], the results for the IC50 in assay [1] (setting [5]) and in assay [2] (setting [6]) were 0.165 nM and 717 nM, respectively.
With `CO[C@]1(CN2CCN3CCN(S(C)(=O)=O)C[C@@H]3C2)/C=C/C[C@H](C)[C@@H](C)S(=O)(=O)NC(=O)c2ccc3c(c2)N(C[C@@H]2CC[C@H]21)C[C@@]1(CCCc2cc(Cl)ccc21)CO3` (single isomer, unassigned) [Example 238], the IC50 in assay [1] (setting [3]) turned out to be 0.176 nM; in assay [2] (read-out: OPM-2 10% FBS IC50 IP, OPM-2 cells, 10% FBS, 16 h incubation), 76 nM.

One may read the IC50 as the concentration at which inhibition is half-maximal.
